According to article PMC6225228, “Design, Synthesis and Evaluation of N-pyrazinylbenzamides as Potential Antimycobacterial Agents” (Molecules : A Journal of Synthetic Chemistry and Natural …, 2018):
≈ marks a conversion by molar mass, not a printed value. Read-outs that look alike come from different tables or passages of the source.

What was measured:
[1] = tested on: Mycobacterium tuberculosis H37Rv CNCTC My 331/88 (ATCC 27294); experiment: Antimycobacterial microdilution MABA, M. tuberculosis; assay type: cell-based; details: for MIC: Mycobacterium tuberculosis, read-out: Mtb H37Rv ATCC 27294 MIC, Middlebrook 7H9 with OADC growth supplement, pH = 6.6, MABA; for Mtb H37Rv ATCC 27294 MIC: Middlebrook 7H9 with OADC growth supplement, pH = 6.6, MABA
Candida krusei E28 = experiment: Antifungal microdilution broth, CK; assay type: cell-based; details: Pichia kudriavzevii, read-out: MIC CK
[2] = tested on: Aspergillus fumigatus 231; experiment: Antifungal microdilution broth, AF; assay type: cell-based; details: read-out: MIC AF
[3] = tested on: Candida albicans ATCC 44859; experiment: Antifungal microdilution broth, CA; assay type: cell-based; details: Candida albicans, read-out: MIC CA
[4] = tested on: Mycobacterium smegmatis CCM 4622 (ATCC 607); experiment: Antimycobacterial microdilution, M. smegmatis; assay type: cell-based; details: Mycolicibacterium smegmatis, read-out: M. smeg. ATCC 607 MIC
[5] = tested on: Staphylococcus epidermidis H 6966/08; experiment: Antibacterial microdilution broth, SE; assay type: cell-based; details: Staphylococcus epidermidis, read-out: MIC SE
[6] = tested on: Escherichia coli CCM 4517; experiment: Antibacterial microdilution broth, EC; assay type: cell-based; details: Escherichia coli, read-out: MIC EC
[7] = tested on: Pseudomonas aeruginosa CCM 1961; experiment: Antibacterial microdilution broth, PA; assay type: cell-based; details: Pseudomonas aeruginosa, read-out: MIC PA
[8] = tested on: M. kansasii CNCTC My 235/80 (ATCC 12478); experiment: Antimycobacterial microdilution MABA, M. kansasii; assay type: cell-based, Mycobacterium kansasii; details: for MIC: Mycobacterium kansasii, ATCC12478, pH 6.6, read-out: M. kans. ATCC 12478 MIC, Middlebrook 7H9 with OADC, pH 6.6, MABA
[9] = tested on: Lichtheimia corymbifera 272; experiment: Antifungal microdilution broth, LC; assay type: cell-based; details: read-out: MIC LC
[10] = tested on: M. avium ssp. avium CNCTC My 80/72 (ATCC 15769); experiment: Antimycobacterial microdilution MABA, M. avium; assay type: cell-based, Mycobacterium avium; details: for MIC: Mycobacterium avium, ATCC15769, pH 6.6, read-out: M. avium ATCC 15769 MIC
Candida glabrata 20/I = experiment: Antifungal microdilution broth, CG; assay type: cell-based; details: Nakaseomyces glabratus, 20/I, read-out: MIC CG
[11] = tested on: Staphylococcus aureus CCM 4516/08; experiment: Antibacterial microdilution broth, SA; assay type: cell-based; details: Staphylococcus aureus
[12] = tested on: Trichophyton interdigitale 445; experiment: Antifungal microdilution broth, TI; assay type: cell-based; details: read-out: MIC TI
[13] = tested on: Staphylococcus aureus H 5996/08 methicillin resistant; experiment: microbe, parasite or virus in culture; assay type: cell-based; details: Staphylococcus aureus, MRSA, read-out: MIC MRSA
Candida tropicalis 156 = experiment: Antifungal microdilution broth, CT; assay type: cell-based; details: read-out: MIC CT
[14] = tested on: Enterococcus sp. J 14365/08; experiment: Antibacterial microdilution broth, EF; assay type: cell-based; details: Enterococcus, read-out: MIC EF
Trichosporon asahii 1188 = experiment: Antifungal microdilution broth, TA; assay type: cell-based; details: read-out: MIC TA
[15] = Aspergillus fumigatus, 231, 24 h
[16] = Aspergillus fumigatus, 231, 48 h
[17] = Middlebrook 7H9 with OADC, pH 6.6, MABA
[18] = Lichtheimia corymbifera, 272, 24 h
[19] = Lichtheimia corymbifera, 272, 48 h
[20] = CCM4516, 24 h, read-out: MIC SA, 24 h
[21] = CCM4516, 48 h, read-out: MIC SA, 48 h
[22] = Trichophyton interdigitale, 445, 72 h
[23] = Trichophyton interdigitale, 445, 120 h
[24] = Trichosporon asahii, 1188, 24 h
[25] = Trichosporon asahii, 1188, 48 h

SMILES	melting point [°C]	MIC [1] [µg/mL]	MIC (Candida krusei E28; E28, 24 h) [µM]	MIC (Candida krusei E28; E28, 48 h) [µM]	MIC [2, 15] [µM]	MIC [2, 16] [µM]	MIC ([3]; ATCC44859, 24 h) [µM]	MIC ([3]; ATCC44859, 48 h) [µM]	MIC [4] [µg/mL]	MIC ([5]; H6966/08, 24 h) [µM]	MIC ([5]; H6966/08, 48 h) [µM]	MIC ([6]; CCM4517, 24 h) [µM]	MIC ([6]; CCM4517, 48 h) [µM]	MIC ([7]; CCM1961, 72 h) [µM]	MIC ([7]; CCM1961, 120 h) [µM]	MIC [8] [µg/mL]	MIC [9, 18] [µM]	MIC [9, 19] [µM]	MIC [10] [µg/mL]	MIC (Candida glabrata 20/I; 24 h) [µM]	also measured
O=C(c1ccc(Cl)cc1)N(C(=O)c1ccc(Cl)cc1)c1cnccn1 [Compound 1l-SP]	153.1 to 153.8	50 (≈ 134 µM)	> 125	> 125	> 125	> 125	> 125	> 125	≥ 500	> 125	> 125	> 125	> 125	> 125	> 125	> 100	> 125	> 125	> 100	> 125	M. kans. ATCC 12478 MIC [8, 17]: >100 µg/mL; M. avium ATCC 15769 MIC [10, 17]: >100 µg/mL; MIC (Candida glabrata 20/I; 48 h): > 125 µM; MIC [11, 20]: > 125 µM; MIC [11, 21]: > 125 µM; MIC [12, 22]: > 125 µM; MIC [12, 23]: > 125 µM; MIC ([13]; 24 h): > 125 µM; MIC ([13]; 48 h): > 125 µM; MIC (Candida tropicalis 156; Candida tropicalis, 156, 24 h): > 125 µM; MIC (Candida tropicalis 156; Candida tropicalis, 156, 48 h): > 125 µM; MIC ([14]; SP.J14365/08, 24 h): > 125 µM; MIC ([14]; SP.J14365/08, 48 h): > 125 µM; MIC (Trichosporon asahii 1188; [24]): > 125 µM; MIC (Trichosporon asahii 1188; [25]): > 125 µM
O=C(Nc1cnccn1)c1ccccc1O [Compound 1b]	209.9 to 211.5	> 100	> 500	> 500	> 500	> 500	> 500	> 500	≥ 500	> 500	> 500	> 500	> 500	> 500	> 500	> 100	> 500	> 500	> 100	> 500	MIC (Candida glabrata 20/I; 48 h): > 500 µM; MIC [11, 20]: > 500 µM; MIC [11, 21]: > 500 µM; MIC [12, 22]: 500 µM (≈ 108 µg/mL); MIC [12, 23]: 500 µM (≈ 108 µg/mL); MIC ([13]; 24 h): > 500 µM; MIC ([13]; 48 h): > 500 µM; MIC (Candida tropicalis 156; Candida tropicalis, 156, 24 h): > 500 µM; MIC (Candida tropicalis 156; Candida tropicalis, 156, 48 h): > 500 µM; MIC ([14]; SP.J14365/08, 24 h): > 500 µM; MIC ([14]; SP.J14365/08, 48 h): > 500 µM; MIC (Trichosporon asahii 1188; [24]): > 500 µM; MIC (Trichosporon asahii 1188; [25]): > 500 µM
O=C(Nc1cnccn1)c1cccc(O)c1 [Compound 1c]	192.2 to 193.7	> 100	> 500	> 500	> 500	> 500	> 500	> 500	≥ 500	> 500	> 500	> 500	> 500	> 500	> 500	> 100	> 500	> 500	> 100	> 500	MIC (Candida glabrata 20/I; 48 h): > 500 µM; MIC [11, 20]: > 500 µM; MIC [11, 21]: > 500 µM; MIC [12, 22]: > 500 µM; MIC [12, 23]: > 500 µM; MIC ([13]; 24 h): > 500 µM; MIC ([13]; 48 h): > 500 µM; MIC (Candida tropicalis 156; Candida tropicalis, 156, 24 h): > 500 µM; MIC (Candida tropicalis 156; Candida tropicalis, 156, 48 h): > 500 µM; MIC ([14]; SP.J14365/08, 24 h): > 500 µM; MIC ([14]; SP.J14365/08, 48 h): > 500 µM; MIC (Trichosporon asahii 1188; [24]): > 500 µM; MIC (Trichosporon asahii 1188; [25]): > 500 µM
O=C(Nc1cnc(Cl)cn1)c1ccc(Br)cc1 [Compound 2m]	229.2 to 230.5	> 100	> 125	> 125	> 125	> 125	> 125	> 125	≥ 500	> 125	> 125	> 125	> 125	> 125	> 125	> 100	> 125	> 125	> 100	> 125	Mtb H37Rv ATCC 27294 MIC [1]: >100 µg/mL; MIC (Candida glabrata 20/I; 48 h): > 125 µM; MIC [11, 20]: > 125 µM; MIC [11, 21]: > 125 µM; MIC [12, 22]: > 125 µM; MIC [12, 23]: > 125 µM; MIC ([13]; 24 h): > 125 µM; MIC ([13]; 48 h): > 125 µM; MIC (Candida tropicalis 156; Candida tropicalis, 156, 24 h): > 125 µM; MIC (Candida tropicalis 156; Candida tropicalis, 156, 48 h): > 125 µM; MIC ([14]; SP.J14365/08, 24 h): > 125 µM; MIC ([14]; SP.J14365/08, 48 h): > 125 µM; MIC (Trichosporon asahii 1188; [24]): > 125 µM; MIC (Trichosporon asahii 1188; [25]): > 125 µM
Cc1ccc(C(=O)Nc2cnccn2)cc1 [Compound 1h]	163.3 to 166	> 100	> 500	> 500	> 500	> 500	500 (≈ 107 µg/mL)	500 (≈ 107 µg/mL)	≥ 500	500 (≈ 107 µg/mL)	500 (≈ 107 µg/mL)	> 500	> 500	500 (≈ 107 µg/mL)	500 (≈ 107 µg/mL)	> 100	> 500	> 500	> 100	> 500	Mtb H37Rv ATCC 27294 MIC [1]: >100 µg/mL; MIC (Candida glabrata 20/I; 48 h): > 500 µM; MIC [11, 20]: > 500 µM; MIC [11, 21]: > 500 µM; MIC [12, 22]: > 500 µM; MIC [12, 23]: > 500 µM; MIC ([13]; 24 h): > 500 µM; MIC ([13]; 48 h): > 500 µM; MIC (Candida tropicalis 156; Candida tropicalis, 156, 24 h): > 500 µM; MIC (Candida tropicalis 156; Candida tropicalis, 156, 48 h): > 500 µM; MIC ([14]; SP.J14365/08, 24 h): > 500 µM; MIC ([14]; SP.J14365/08, 48 h): > 500 µM; MIC (Trichosporon asahii 1188; [24]): > 500 µM; MIC (Trichosporon asahii 1188; [25]): > 500 µM
